According to patent publication US20240287019A1, “T-TYPE CALCIUM CHANNEL BLOCKER” (KINKI UNIVERSITY, priority 2021, published 2024):

Columns and labels:
[1] = test system: male ddY mice; experiment: Catalepsy-inducing effect (bar test) after administration in the lateral ventricle; format: in vivo; conditions: 8 nmol in the lateral ventricle; 30-180 minutes after administration; result in words
Source text: In this test, the catalepsy-inducing effect of the present compound was studied to evaluate whether the present compound can inhibit side effects caused by the dopamine D2 receptor blockade. Compound 5 and compound 12 were used as the present compound and 2% DMSO solution was used as vehicle. Also, pimozide was used as the control drug.
16 male ddY mice were randomly divided into compound 5 administration group, compound 12 administration group, pimozide administration group and vehicle administration group (4 mice per group). The mice in each group were received the administration of 8 nmol (0.8 mM/10 μL) of compound 5, compound 12 and pimozide, and 10 μL of vehicle in the lateral ventricle. both forepaws of the mice were forced to place themselves on a horizontal iron bar (Height: 5 cm) and the time of keeping the posture (catalepsy) was measured to evaluate the presence or absence of catalepsy. The measurement was terminated when the forepaws touched the floor or when the mouse was on the bar.

[2] = test system: mouse intrabuccal injection pruritus models (histamine); experiment: Mouse intrabuccal injection pruritus model, histamine as pruritogen; format: in vivo, mice
Method: (§1) In this test, the antipruritic effect of the present compound was studied using mouse intrabuccal injection pruritus models in which histamine or chloroquine is intra-buccally administered as a pruritogen. Compound 5 and compound 38 were used as the present compound, and saline comprising 1% DMSO and 5% Tween 80 was used as control. Compound 5 and compound 38 were dissolved into saline comprising 1% DMSO and 5% Tween 80 to adjust the concentration of each compound. Also, male ICR mice with a body weight of 23 to 40 g were used as experimental animals and the animals were freely given tap water and solid feed and was kept under 12-hour light/dark cycle at room temperature of about 24° C.
According to the method in Shimada SG & LaMotte R H (2008) Behavioral differentiation between itch and pain in mouse. […] After the acclimatization, saline in a volume of 10 μL/site, histamine in a volume of 300 μL/site or chloroquine in a volume of 100 μL/site was intradermally administered to the shaved cheeks of the mice without anesthesia, and their subsequent behavior was recorded on video for 60 minutes. […] At the later date, the video was replayed and the number of occurrences of the scratching bouts by the hind paws to the administration site (as pruritus response) was counted for 60 minutes to evaluate the antipruritic effect of the present compound. […]

[3] = target: T1, human Cav3.2 T-type calcium channels (Homo sapiens, UniProt O95180); experiment: Whole-cell patch clamp, T channel current in HEK 293 cells forcibly expressing human Cav3.2; format: cell-based; conditions: perfusion addition method; from percentage change in T-channel current before and after addition; n=3 to 17
T1 construct: expressed in transfected cells; host or cells: HEK 293 cells
Method: The effect of the compound of the present invention on human Cav3.2 T-type calcium channels was evaluated by whole-cell patch clamp method. As a control (vehicle), DMSO solution was used.
Human kidney cell-derived cell line, HEK 293 cells, in which human Cav3.2 T-type calcium channels were forcibly expressed, were seeded into cell culture dishes using DMEM medium containing 10% fetal bovine serum and cultured at 37° C. under 5% CO2 conditions. In the whole-cell patch clamp method, the following solutions were used as extracellular and intracellular solutions, the holding potential is set at −80 mV, and the barium current flowing as an inward current in a potential jump from −80 mV to −20 mV was measured with a patch clamp amplifier and AD converter (Axon Instruments). In order to eliminate the influence of high-threshold activated calcium channels, the value obtained by subtracting the current at 150 ms after the start of stimulation from the peak current was used for data analysis as the T channel current (T-current). The data analysis was performed using pClamp8 (Axon Instruments).
As for test compounds, each compound dissolved in extracellular solution was added directly to the dishes (direct addition method) or added to the dishes by perfusion (perfusion addition method).
According to a similar method to the perfusion addition method of Test Example 1, the effect of each compound of the present invention on human Cav3.2 T-type channels was evaluated. As the test compounds, pimozide at each concentration of 0.01 μM, 0.1 μM, 0.3 μM, 1.0 μM and 3.0 μM, compound 5, compound 14 and compound 15 were used and the test compounds were added by perfusion.

[4] = test system: mouse Na2S intrabuccal injection pruritus models; experiment: Mouse Na2S intrabuccal injection pruritus model (scratching bouts and wipes); format: in vivo, mice
Method: In this test, the antipruritic and analgesic effects of the present compound was studied using mouse Na2S intrabuccal injection pruritus models. Compound 5 was used as the present invention and saline comprising 1% DMSO and 5% Tween 80 was used as vehicle.
Male ICR mice were received the intrabuccal injection of 3.8 μmol (300 μg/10 μL) of Na2S and T-type calcium channel-[…] pain was induced to prepare mouse Na2S intrabuccal injection pruritus models. 18 mice were randomly divided into vehicle+saline administration group (control group), vehicle+Na2S administration group and compound 5 (10 mg/kg)+Na2S administration group (6 mice per group). The mice in each group were anesthetized with isoflurane and their right cheek hairs were shaved the day or a few days before the experiment. On the day of the experiment, the mice were placed in an acrylic observation cage with mirrors on all four sides and allowed to acclimate the environment for at least 30 minutes. After the acclimatization, Na2S was intradermally administered to the shaved cheeks of the mice without anesthesia, and their subsequent behavior was recorded on video. Compound 5 (10 mg/kg) or vehicle (V, 10 mL/kg) was intraperitoneally administered 30 minutes before Na2S was administered. At the later date, the video was replayed and the number of occurrences of the scratching bouts by the hind paws to the administration site (as pruritus response) and the wipes (wiping) by the forepaws (as pain response) was counted for 60 minutes to evaluate the antipruritic and analgesic effects of the present compound.

[5] = test system: mouse Na2S intraplantar injection pain models; experiment: Mouse Na2S intraplantar injection pain model (von Frey pain threshold); format: in vivo, mice; conditions: for Pain Threshold: mean ± standard error
Method: In this test, the analgesic effect of the present compound was studied using mouse Na2S intraplantar injection pain models. Compound 5 was used as the present compound, and saline comprising 1% DMSO and 5% Tween 80 was used as vehicle.
Male ICR mice were received the intraplantar injection of 10 μmol/paw/10 μL of Na2S and T-type calcium channel-dependent pain was induced to prepare mouse Na2S intraplantar injection pain models. The mice were randomly divided into the vehicle+vehicle administration group (control group), vehicle+Na2S administration group, compound 5 (1 mg/kg)+Na2S administration group, compound 5 (3 mg/kg)+Na2S administration group and compound 5 (10 mg/kg)+Na2S administration group (n=7 to 11). Vehicle (V, 10 mL/kg) or 1, 3 or 10 mg/kg of compound 5 was intraperitoneally administered 30 minutes before Na2S was injected intraplantarlly in the hind paws of the mice.
Pain thresholds were measured every 15 minutes until 60 minutes after the administration of Na2S by the von Frey method to evaluate the analgesic effect of the present compound.

[6] = test system: mouse intrabuccal injection pruritus models (chloroquine); experiment: Mouse intrabuccal injection pruritus model, chloroquine as pruritogen; format: in vivo, mice; conditions: for Scratching bouts (counts/60 minutes) (n): mean ± standard error (n); for inhibition of the histamine-independent scratching bouts: 10 mg/kg, chloroquine, result in words
Method: as §1
According to the method in Shimada SG & LaMotte R H (2008) Behavioral differentiation between itch and pain in mouse. Pain 139 (3): 681-687, histamine or chloroquine, which is a pruritogen, was dissolved into saline and the solution was administered into the buccal skin of each male ICR mouse and pruritus was induced to prepare mouse intrabuccal injection pruritus models. The mice were randomly divided into saline comprising 1% DMSO and 5% Tween 80 (Solvent 1)+saline (Solvent 2) administration group (control group), Solvent 1+histamine administration group, compound 5 (10 mg/kg)+histamine administration group, Solvent 1+chloroquine administration group, compound 5 (10 mg/kg)+chloroquine administration group, compound 38 (1 mg/kg)+chloroquine administration group, compound 38 (3 mg/kg)+chloroquine administration group and compound 38 (10 mg/kg)+chloroquine administration group (n=6 to 10). The mice in each group were anesthetized with isoflurane and their right cheek hairs were shaved a few days before the experiment. On the day of the experiment, the mice were placed in an acrylic observation cage (10×14×30 cm) with mirrors on all four sides and allowed to acclimate the environment for at least 30 minutes. After the acclimatization, saline in a volume of 10 μL/site, histamine in a volume of 300 μL/site or chloroquine in a volume of 100 μL/site was intradermally administered to the shaved cheeks of the mice without anesthesia, and their subsequent behavior was recorded on video for 60 minutes. Compound 5 (10 mg/kg), compound 38 (1 mg/kg, 3 mg/kg or 10 mg/kg) or Solvent 1 (10 mL/kg) was intraperitoneally administered 30 minutes before saline or the pruritogen was administered. At the later date, the video was replayed and the number of occurrences of the scratching bouts by the hind paws to the administration site (as pruritus response) was counted for 60 minutes to evaluate the antipruritic effect of the present compound.
The test results are shown in Table 5 to Table 7 and FIG. 8 to FIG. 10. Table 5 and FIG. 8 show the mean value±standard error (the total (n)) of the total counts of the scratching bouts by the hind paws to the administration site for 60 minutes after the administration in control group, Solvent 1+histamine administration group and compound 5 (10 mg/kg)+histamine administration group and the graph thereof, and Table 6 and FIG. 9 show the mean value±standard error (the total (n)) of the total counts of the scratching bouts by the hind paws to the administration site for 60 minutes after the intrabuccal administration on the right side in control group, Solvent 1+chloroquine administration group, compound 5(10 mg/kg)+chloroquine administration group and the graph thereof, and Table 7 and FIG. 10 show the mean value±standard error (the total (n)) of the total counts of the scratching bouts by the hind paws to the administration site for 60 minutes after the intrabuccal administration on the right side in control group, Solvent 1+chloroquine administration group, compound 38 (1 mg/kg)+chloroquine administration group, compound 38 (3 mg/kg)+chloroquine administration group and compound 38 (10 mg/kg)+chloroquine administration group and the graph thereof.

[7] = 10 mg/kg i.p. + Na2S, result in words
[8] = 10 mg/kg intraperitoneally 30 minutes before Na2S, mean ± standard error, 6 mice

T1 sequence (O95180 whole entry, the tested form may be a part): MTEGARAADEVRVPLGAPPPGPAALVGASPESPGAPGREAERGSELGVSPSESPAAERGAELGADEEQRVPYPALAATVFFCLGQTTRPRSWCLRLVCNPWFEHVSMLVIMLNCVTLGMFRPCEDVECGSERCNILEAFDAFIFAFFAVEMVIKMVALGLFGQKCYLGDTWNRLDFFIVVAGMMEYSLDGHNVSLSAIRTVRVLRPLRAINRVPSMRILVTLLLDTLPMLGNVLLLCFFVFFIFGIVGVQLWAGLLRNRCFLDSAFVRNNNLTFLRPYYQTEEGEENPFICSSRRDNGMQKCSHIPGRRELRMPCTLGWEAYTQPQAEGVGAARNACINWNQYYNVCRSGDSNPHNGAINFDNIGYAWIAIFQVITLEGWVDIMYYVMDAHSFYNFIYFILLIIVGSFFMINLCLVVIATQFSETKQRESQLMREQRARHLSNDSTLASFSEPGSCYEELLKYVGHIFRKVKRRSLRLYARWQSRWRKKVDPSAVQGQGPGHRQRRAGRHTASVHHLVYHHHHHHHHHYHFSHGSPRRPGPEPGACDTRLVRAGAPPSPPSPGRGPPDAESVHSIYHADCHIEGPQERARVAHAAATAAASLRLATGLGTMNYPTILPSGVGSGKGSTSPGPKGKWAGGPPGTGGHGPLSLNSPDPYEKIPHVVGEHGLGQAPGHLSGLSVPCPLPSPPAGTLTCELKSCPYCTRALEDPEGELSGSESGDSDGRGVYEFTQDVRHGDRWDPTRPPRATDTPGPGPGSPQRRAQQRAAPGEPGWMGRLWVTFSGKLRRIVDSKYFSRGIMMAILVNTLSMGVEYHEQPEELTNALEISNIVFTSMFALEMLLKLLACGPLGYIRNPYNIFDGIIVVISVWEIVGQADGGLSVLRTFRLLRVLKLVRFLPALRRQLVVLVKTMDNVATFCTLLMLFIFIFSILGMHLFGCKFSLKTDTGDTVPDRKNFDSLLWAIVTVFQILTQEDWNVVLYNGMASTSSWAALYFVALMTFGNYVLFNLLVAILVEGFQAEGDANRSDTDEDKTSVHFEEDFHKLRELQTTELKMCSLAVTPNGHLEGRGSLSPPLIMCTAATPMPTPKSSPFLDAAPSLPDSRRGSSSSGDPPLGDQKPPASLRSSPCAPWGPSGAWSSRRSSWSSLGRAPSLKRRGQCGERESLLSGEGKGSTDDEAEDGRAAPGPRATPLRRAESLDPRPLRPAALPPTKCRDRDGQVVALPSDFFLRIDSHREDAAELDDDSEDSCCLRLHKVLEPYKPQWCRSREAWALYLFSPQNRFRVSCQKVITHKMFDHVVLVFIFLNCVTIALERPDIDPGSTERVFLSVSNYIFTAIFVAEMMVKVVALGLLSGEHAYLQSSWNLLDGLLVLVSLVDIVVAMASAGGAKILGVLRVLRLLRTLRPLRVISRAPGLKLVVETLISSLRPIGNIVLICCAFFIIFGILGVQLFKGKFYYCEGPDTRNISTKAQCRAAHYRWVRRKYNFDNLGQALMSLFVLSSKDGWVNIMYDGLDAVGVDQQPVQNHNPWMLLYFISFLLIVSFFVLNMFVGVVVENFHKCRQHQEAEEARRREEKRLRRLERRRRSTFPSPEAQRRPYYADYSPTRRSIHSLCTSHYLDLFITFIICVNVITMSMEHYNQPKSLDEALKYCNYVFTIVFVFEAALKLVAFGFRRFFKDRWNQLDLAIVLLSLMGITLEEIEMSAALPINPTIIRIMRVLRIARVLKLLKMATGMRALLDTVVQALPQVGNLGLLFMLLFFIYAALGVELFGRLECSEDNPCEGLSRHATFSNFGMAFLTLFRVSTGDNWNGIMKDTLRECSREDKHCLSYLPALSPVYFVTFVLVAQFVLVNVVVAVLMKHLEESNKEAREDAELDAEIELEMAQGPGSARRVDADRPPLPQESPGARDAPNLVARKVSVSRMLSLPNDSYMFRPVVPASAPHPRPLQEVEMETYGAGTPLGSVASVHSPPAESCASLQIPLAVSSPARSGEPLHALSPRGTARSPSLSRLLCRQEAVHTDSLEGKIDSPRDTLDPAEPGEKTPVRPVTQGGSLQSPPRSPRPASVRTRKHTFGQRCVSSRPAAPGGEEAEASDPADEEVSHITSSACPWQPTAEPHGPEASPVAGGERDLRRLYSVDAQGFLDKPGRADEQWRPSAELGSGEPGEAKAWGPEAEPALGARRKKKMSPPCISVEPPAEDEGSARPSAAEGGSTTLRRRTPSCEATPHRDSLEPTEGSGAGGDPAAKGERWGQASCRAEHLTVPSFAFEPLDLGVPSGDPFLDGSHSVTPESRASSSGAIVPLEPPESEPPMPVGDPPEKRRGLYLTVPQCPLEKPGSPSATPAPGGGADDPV

O=c1n(CCCCc2ccccc2)c2ccccc2n1C1CCN(CCCCc2ccccc2)CC1 [Compound 5, 1-(4-phenylbutyl)-3-(1-(4-phenylbutyl)piperidin-4-yl)-1H-benzo[d]imidazol-2(3H)-one]
catalepsy (keeping time of posture) [1]: catalepsy was induced
Scratching bouts (counts/60 minutes) (n) ([2]; 10 mg/kg i.p. 30 minutes before histamine, mean ± standard error (n)): 13.3 ± 5.0 (7) counts/60 minutes
inhibition of the histamine-dependent scratching bouts ([2]; 10 mg/kg, result in words): strongly inhibited
IC50 [3]: 0.461 µM
inhibition of pain [4, 7]: significantly inhibited
inhibition of pruritus [4, 7]: significantly inhibited
Scratching bouts (counts/60 minutes) [4, 8]: 36.2 ± 9.5 counts/60 minutes
Wipes (counts/60 minutes) [4, 8]: 30.7 ± 4.0 counts/60 minutes
Pain Threshold ([5]; 1 mg/kg i.p. + Na2S, 15 minutes after administration): 0.317 ± 0.082 g
Pain Threshold ([5]; 1 mg/kg i.p. + Na2S, 30 minutes after administration): 0.296 ± 0.078 g
Pain Threshold ([5]; 3 mg/kg i.p. + Na2S, 15 minutes after administration): 0.347 ± 0.079 g
Pain Threshold ([5]; 3 mg/kg i.p. + Na2S, 30 minutes after administration): 0.417 ± 0.064 g
Pain Threshold ([5]; 10 mg/kg i.p. + Na2S, 15 minutes after administration): 0.514 ± 0.054 g
Pain Threshold ([5]; 10 mg/kg i.p. + Na2S, 30 minutes after administration): 0.604 ± 0.049 g
inhibition of pain ([5]; compound 5 administration group + Na2S, result in words): pain was inhibited
Scratching bouts (counts/60 minutes) (n) ([6]; 10 mg/kg i.p. 30 minutes before chloroquine, Table 6): 24.9 ± 5.5 (10) counts/60 minutes
inhibition of the histamine-independent scratching bouts [6]: strongly inhibited

O=c1n(CCCCc2ccccc2)c2ccccc2n1C1CCN(CCCc2ccccc2)CC1 [Compound 14, 1-(4-Phenylbutyl)-3-(1-(3-phenylpropyl)piperidin-4-yl)-1H-benzo[d]imidazol-2(3H)-one]
IC50 [3]: 0.337 µM

O=C(CCCc1ccccc1)N1CCC(n2c(=O)n(CCCCc3ccccc3)c3ccccc32)CC1 [Compound 15, 1-(1-(4-Phenylbutanoyl)piperidin-4-yl)-3-(4-phenylbutyl)-1H-benzo[d]imidazol-2(3H)-one]
IC50 [3]: 0.153 µM

O=c1n(CCCCc2cccc(F)c2)c2ccccc2n1C1CCN(CCCCc2cccc(F)c2)CC1 [Compound 38, 1-(4-(3-Fluorophenyl)butyl)-3-(1-(4-(3-fluorophenyl)butyl)piperidin-4-yl)-1H-benzo[d]imidazol-2(3H)-one]
Scratching bouts (counts/60 minutes) (n) ([6]; 1 mg/kg i.p. 30 minutes before chloroquine, Table 7): 73.0 ± 10.5 (6) counts/60 minutes
Scratching bouts (counts/60 minutes) (n) ([6]; 3 mg/kg i.p. 30 minutes before chloroquine, Table 7): 50.7 ± 9.7 (6) counts/60 minutes
Scratching bouts (counts/60 minutes) (n) ([6]; 10 mg/kg i.p. 30 minutes before chloroquine, Table 7): 28.8 ± 10.5 (8) counts/60 minutes
inhibition of the histamine-independent scratching bouts [6]: strongly inhibited

O=c1[nH]c2ccccc2n1C1CCN(CCCC(c2ccc(F)cc2)c2ccc(F)cc2)CC1 [Pimozide, 1-{1-[4,4-Bis(4-fluorophenyl)butyl]piperidin-4-yl}-1,3-dihydro-2H-benzimidazol-2-one, reference compound]
IC50 [3]: 0.157 µM
